Key:
Format in all cases: cell-based, mouse
differentiated ES cells = experiment: Real time PCR of gene expression in differentiated ES cells; details: TBZ 2.5 μM
VMAT2KD ES cells [1] = experiment: c-peptide amount of differentiated VMAT2KD ES cells (ELISA); details: dBu-cAMP 0.6 μM (FIG. 12A)
Experimental: (§1) In the Vmat2-knockdown and Drd2-knockdown assays, Expression Arrest non-silencing control shRNA (Open Biosystems, #RHS4080), Vmat2 hRNA (Open Biosystems, #RMM3981-97058457 and #RMM3981-97058458) or Drd2 hRNA (Open Biosystems, #RMM3981-9594258) lentiviral vectors were used. For virus preparation, HEK293-FT cells (Invitrogen) were seeded on a plate medium the day before transfection. After overnight culture, the cells were transfected with lentiviral vectors and ViraPower™ Lentiviral Packaging Mix (Invitrogen) using FuGENE6 Transfection Reagent (Roche) according to the manufacturer's protocol. Cells were incubated in the ES maintenance medium for 24 hours, and viral supernatants were collected. Then, SK7 cells were infected with the viral supernatants. After incubation for 24 hours, the virus-containing medium was replaced with fresh ES maintenance medium. Further 24 hours later, the infected cells were selected using […] puromycin. The surviving cells were cloned as a knockdown-cell lines.
Differentiated ES cells were pre-incubated for 4 hours in low glucose (5.5 mM) Dulbecco's modified minimal essential medium with 1% fetal bovine serum. […] Insulin secretion into the culture medium and insulin content of the cell lysate were measured using the mouse c-peptide ELISA kit (Shibayagi. Co. Ltd., Japan). […]

VMAT2KD ES cells [2] = experiment: Differentiation into insulin-expressing cells in vesicular monoamine transporter knock-down cell line; details: VMAT2KD cells with dBu-cAMP 0.63 μM; control = normal cells without cAMP analog (FIG. 11A)
Experimental: as §1
Drd2 is known as a G protein-coupled receptor activating Gαi/o protein and having an inhibiting activity against adenyl cyclase. To identify the intracellular signal transduction phenomenon by Drd2, the effect of cAMP was examined. […] This enhancement was stronger than that obtained when dBu-cAMP was added to VMAT2KD ES cells (FIG. 10). […]

CCCC(=O)Nc1ncnc2c1ncn2[C@@H]1O[C@@H]2COP(=O)(O)O[C@H]2[C@H]1OC(=O)CCC [Dibutyryl- cAMP, dibutyrate-cAMP]
expression of Abcc8 (differentiated ES cells; dBu-cAMP 0.6 μM (FIG. 13)): increased remarkably | expression of Glut2 (differentiated ES cells; dBu-cAMP 0.6 μM (FIG. 13)): increased remarkably | expression of MafA (differentiated ES cells; dBu-cAMP 0.6 μM (FIG. 13)): increased slightly | expression of Stx1 (differentiated ES cells; dBu-cAMP 0.6 μM (FIG. 13)): increased slightly | expression level of MafA, time course (differentiated ES cells; dBu-cAMP 0.6 μM from day 11, after day 13 (FIG. 15)): promoted | expression level of Ngn3 (differentiated ES cells; dBu-cAMP 0.6 μM from day 11, day 13 and day 15 (FIG. 15)): increased also | expression level of Insulin1 (differentiated ES cells; dBu-cAMP 0.6 μM from day 11, single after day 13, both after day 15 (FIG. 15)): promoted | c-peptide amount of differentiated cells (VMAT2KD ES cells [1]): large increase in the c-peptide amount | increase of number of insulin-expressing cells (VMAT2KD ES cells [2]): 31.4 fold

From US9617517B2, “Small chemical compound which promotes induction of differentiation of stem cells into insulin-producing cells and method for inducing differentiation of stem cells into insulin-producing cells using said small chemical compound” (NATIONAL UNIVERSITY CORPORATION KUMAMOTO UNIVERSITY, priority 2011, dated 2017)
